The source of these data is ChEMBL document CHEMBL4507297, “Data for DCP probe PF-04457845” (2021).

SMILES strings stand for the structures. Calls of active or inactive are those of the source. The calls are words filed in the database; no cut-off is given here.

Test [1] concerns the target T1, Fatty-acid amide hydrolase 1 (Homo sapiens, UniProt O00519). Nature of the test: Binding assay. Set-up: compound concentration 10 uM.
The target of test [2] is T2, 5-hydroxytryptamine receptor 3A (Homo sapiens) (UniProt P46098).
T2 sequence (whole entry): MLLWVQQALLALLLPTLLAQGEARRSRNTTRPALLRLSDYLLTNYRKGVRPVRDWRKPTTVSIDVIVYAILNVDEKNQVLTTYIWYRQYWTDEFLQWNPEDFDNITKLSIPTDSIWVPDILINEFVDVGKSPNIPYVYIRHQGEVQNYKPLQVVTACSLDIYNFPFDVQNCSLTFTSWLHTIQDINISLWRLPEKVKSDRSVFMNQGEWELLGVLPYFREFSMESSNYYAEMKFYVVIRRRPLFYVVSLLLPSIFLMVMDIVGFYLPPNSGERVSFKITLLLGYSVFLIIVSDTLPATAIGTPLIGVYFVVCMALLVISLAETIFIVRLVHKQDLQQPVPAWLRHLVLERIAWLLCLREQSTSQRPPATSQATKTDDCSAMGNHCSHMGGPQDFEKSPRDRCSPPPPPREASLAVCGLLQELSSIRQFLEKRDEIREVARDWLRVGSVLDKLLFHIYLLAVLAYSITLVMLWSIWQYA
The test can be described thus: 5-HT3 (h) CEREP ligand profiling. To be noted: Compound concentration 10.0 uM.

Test [3] is described as follows: CI channel CEREP ligand profiling.
For test [4], the target named is Histamine H4 receptor (Homo sapiens) (UniProt Q9H3N8). To be noted: Compound concentration 10.0 uM.
The target in test [5] is Phosphodiesterase 4 (Homo sapiens) (UniProt P27815+Q08499+Q07343+Q08493). The test can be described thus: PDE 4 (h) CEREP ligand profiling. It is filed as protein assay. Particulars: Compound concentration 10.0 uM.
Test [6] deals with Glutamate receptor ionotropic, kainate 2 (Homo sapiens) (UniProt Q13002). The test can be described thus: Kainate CEREP ligand profiling. To be noted: Compound concentration 10.0 uM.
Test [7] concerns the target Sodium/potassium-transporting ATPase (Homo sapiens) (UniProt P05023+P14415+P05026+P50993+P54709+P13637+Q13733+P54710). The test can be described thus: ATPase (Na+/K+) CEREP ligand profiling. Particulars: Compound concentration 10.0 uM. It is filed as protein-complex assay.
Test [8] has as its target 5-hydroxytryptamine receptor 2B (Homo sapiens, UniProt P41595). The test can be described thus: 5-HT2B (h) (agonist site) CEREP ligand profiling. To be noted: Compound concentration 10.0 uM.
The target of test [9] is Alpha-1D adrenergic receptor (Homo sapiens) (UniProt P25100). To be noted: Compound concentration 10.0 uM.
Test [10] deals with Alpha-2B adrenergic receptor (Homo sapiens) (UniProt P18089). The test can be described thus: alpha2B (h) CEREP ligand profiling. To be noted: Compound concentration 10.0 uM.
In test [11] the target is D(3) dopamine receptor (Homo sapiens) (UniProt P35462). The test can be described thus: D3 (h) CEREP ligand profiling. To be noted: Compound concentration 10.0 uM.
Test [12] deals with Adrenergic receptor alpha-1 (Homo sapiens) (UniProt P35348+P25100+P35368). The test can be described thus: alpha1 (non-selective) CEREP ligand profiling. It is filed as protein assay. To be noted: Compound concentration 10.0 uM.
Test [13] addresses 5-hydroxytryptamine receptor 2C (Homo sapiens, UniProt P28335). The test can be described thus: GPCRScan assay: inhibition of 5-HT2C. More on the design: radioligand conc. used [nm] 1.0 – 2.5, parental cells HEK T.
Test [14] addresses T1, Fatty-acid amide hydrolase 1. The test can be described thus: Glutamate dehydrogenase-coupled FAAH assay (preincubation time 60 min).
The target of test [15] is Gastrin/cholecystokinin type B receptor (Homo sapiens) (UniProt P32239). Nature of the test: CCKB (h) (CCK2) CEREP ligand profiling. To be noted: Compound concentration 10.0 uM.
Test [16] has as its target T3, Muscarinic acetylcholine receptor M1 (Homo sapiens) (UniProt P11229).
T3 sequence (whole entry): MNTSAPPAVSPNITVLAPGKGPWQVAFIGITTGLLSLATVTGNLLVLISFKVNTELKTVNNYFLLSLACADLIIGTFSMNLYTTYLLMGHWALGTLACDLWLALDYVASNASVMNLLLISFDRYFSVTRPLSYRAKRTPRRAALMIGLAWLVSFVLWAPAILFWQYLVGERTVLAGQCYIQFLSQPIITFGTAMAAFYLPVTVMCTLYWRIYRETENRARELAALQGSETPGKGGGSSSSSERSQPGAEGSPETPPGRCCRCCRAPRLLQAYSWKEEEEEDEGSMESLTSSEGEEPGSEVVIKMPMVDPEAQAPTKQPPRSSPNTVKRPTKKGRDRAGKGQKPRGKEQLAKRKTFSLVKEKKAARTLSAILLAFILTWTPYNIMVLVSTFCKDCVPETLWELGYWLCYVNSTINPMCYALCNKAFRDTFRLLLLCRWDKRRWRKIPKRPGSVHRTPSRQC
Nature of the test: M1 (h) CEREP ligand profiling. To be noted: Compound concentration 10.0 uM.

The target in test [17] is Alpha-2C adrenergic receptor (Homo sapiens, UniProt P18825). The test can be described thus: GPCRScan assay: inhibition of Alpha2C. Set-up: radioligand conc. used [nm] 0.5 – 1.0, parental cells stable MDCK.
In test [18] the target is Beta-3 adrenergic receptor (Homo sapiens) (UniProt P13945). To be noted: Compound concentration 10.0 uM.
In test [19] the target is Sodium-dependent noradrenaline transporter (Homo sapiens) (UniProt P23975). Nature of the test: NE transporter (h) CEREP ligand profiling. To be noted: Compound concentration 10.0 uM.
The target of test [20] is 5-hydroxytryptamine receptor 2A (Homo sapiens, UniProt P28223). The test can be described thus: 5-HT2A (h) (agonist site) CEREP ligand profiling.
Test [21] deals with Glutamate receptor ionotropic, AMPA (Rattus norvegicus) (UniProt P19491+P19492+P19493+P19490). The test can be described thus: AMPA CEREP ligand profiling. It is filed as protein-complex assay. Particulars: Compound concentration 10.0 uM.
The target of test [22] is Kappa-type opioid receptor (Homo sapiens) (UniProt P41145). To be noted: Compound concentration 10.0 uM.
Test [23] has as its target Type-1 angiotensin II receptor (Homo sapiens) (UniProt P30556). The test can be described thus: AT1 (h) CEREP ligand profiling. Particulars: Compound concentration 10.0 uM.
The target in test [24] is T4, 5-hydroxytryptamine receptor 2C (Homo sapiens) (UniProt P28335).
T4 sequence (whole entry): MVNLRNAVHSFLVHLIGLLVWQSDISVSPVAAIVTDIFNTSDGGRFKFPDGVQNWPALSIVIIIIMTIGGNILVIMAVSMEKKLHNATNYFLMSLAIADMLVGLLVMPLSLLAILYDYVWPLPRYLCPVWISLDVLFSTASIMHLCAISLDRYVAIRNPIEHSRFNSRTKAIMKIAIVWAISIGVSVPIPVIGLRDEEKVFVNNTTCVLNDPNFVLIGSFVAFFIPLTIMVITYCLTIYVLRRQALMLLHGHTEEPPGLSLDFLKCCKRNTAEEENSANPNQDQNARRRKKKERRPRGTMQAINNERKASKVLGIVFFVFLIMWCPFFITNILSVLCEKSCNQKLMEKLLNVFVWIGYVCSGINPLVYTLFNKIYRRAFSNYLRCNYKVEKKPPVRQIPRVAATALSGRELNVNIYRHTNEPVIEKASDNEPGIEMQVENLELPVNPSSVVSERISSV
The test can be described thus: 5-HT2C (h) (agonist site) CEREP ligand profiling. Particulars: Compound concentration 10.0 uM.

The target in test [25] is Vasopressin V1a receptor (Homo sapiens) (UniProt P37288). Nature of the test: V1a (h) CEREP ligand profiling. To be noted: Compound concentration 10.0 uM.
Test [26] deals with Histamine H3 receptor (Homo sapiens) (UniProt Q9Y5N1). Nature of the test: H3 (h) CEREP ligand profiling. Particulars: Compound concentration 10.0 uM.
Test [27] addresses Sodium- and chloride-dependent GABA transporter 1 (Homo sapiens) (UniProt P30531). Nature of the test: GABA transporter CEREP ligand profiling. To be noted: Compound concentration 10.0 uM.
For test [28], the target named is Kappa-type opioid receptor (Homo sapiens) (UniProt P41145). Nature of the test: kappa (KOP) CEREP ligand profiling. Particulars: Compound concentration 10.0 uM.

Kappa-type opioid receptor (Homo sapiens), sequence (P41145 whole entry): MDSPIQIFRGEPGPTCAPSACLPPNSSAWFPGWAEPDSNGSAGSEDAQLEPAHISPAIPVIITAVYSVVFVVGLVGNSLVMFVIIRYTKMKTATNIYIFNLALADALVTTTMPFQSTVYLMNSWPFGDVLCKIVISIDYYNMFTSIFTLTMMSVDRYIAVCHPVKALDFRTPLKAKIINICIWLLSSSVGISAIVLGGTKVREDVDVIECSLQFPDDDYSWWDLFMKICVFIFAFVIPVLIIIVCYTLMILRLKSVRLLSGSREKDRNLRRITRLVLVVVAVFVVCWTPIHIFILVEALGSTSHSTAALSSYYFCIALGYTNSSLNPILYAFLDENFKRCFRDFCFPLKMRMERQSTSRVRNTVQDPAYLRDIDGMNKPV
5-hydroxytryptamine receptor 2A, sequence (P28223 whole entry): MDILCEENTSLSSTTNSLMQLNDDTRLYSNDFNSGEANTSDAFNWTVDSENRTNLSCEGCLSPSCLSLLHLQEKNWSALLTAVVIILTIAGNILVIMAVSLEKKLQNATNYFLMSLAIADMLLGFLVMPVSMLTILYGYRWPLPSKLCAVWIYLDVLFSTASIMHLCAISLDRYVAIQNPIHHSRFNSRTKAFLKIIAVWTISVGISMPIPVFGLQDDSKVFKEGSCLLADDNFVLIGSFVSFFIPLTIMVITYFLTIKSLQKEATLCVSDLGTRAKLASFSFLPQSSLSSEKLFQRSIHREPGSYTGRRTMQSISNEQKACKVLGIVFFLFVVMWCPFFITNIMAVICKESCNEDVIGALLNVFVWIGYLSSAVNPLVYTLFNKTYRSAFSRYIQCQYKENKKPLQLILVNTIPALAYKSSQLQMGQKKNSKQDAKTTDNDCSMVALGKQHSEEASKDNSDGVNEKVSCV
T1 sequence (O00519 whole entry): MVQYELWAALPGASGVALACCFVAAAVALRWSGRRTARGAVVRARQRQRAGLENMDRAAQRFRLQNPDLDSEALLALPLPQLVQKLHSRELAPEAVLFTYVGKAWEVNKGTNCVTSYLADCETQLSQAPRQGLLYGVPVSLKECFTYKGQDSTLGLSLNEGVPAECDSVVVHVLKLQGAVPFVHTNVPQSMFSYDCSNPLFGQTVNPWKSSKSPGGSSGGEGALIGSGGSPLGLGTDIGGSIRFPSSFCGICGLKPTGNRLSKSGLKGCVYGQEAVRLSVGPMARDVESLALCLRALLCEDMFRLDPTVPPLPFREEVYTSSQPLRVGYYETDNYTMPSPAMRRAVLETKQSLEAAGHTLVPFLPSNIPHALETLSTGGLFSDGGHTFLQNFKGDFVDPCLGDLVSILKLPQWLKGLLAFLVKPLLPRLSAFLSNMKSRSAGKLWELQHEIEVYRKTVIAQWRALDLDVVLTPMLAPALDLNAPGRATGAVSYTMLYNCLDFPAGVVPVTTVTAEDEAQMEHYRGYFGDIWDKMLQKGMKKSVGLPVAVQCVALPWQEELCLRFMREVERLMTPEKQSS
Alpha-2B adrenergic receptor (Homo sapiens), sequence (P18089 whole entry): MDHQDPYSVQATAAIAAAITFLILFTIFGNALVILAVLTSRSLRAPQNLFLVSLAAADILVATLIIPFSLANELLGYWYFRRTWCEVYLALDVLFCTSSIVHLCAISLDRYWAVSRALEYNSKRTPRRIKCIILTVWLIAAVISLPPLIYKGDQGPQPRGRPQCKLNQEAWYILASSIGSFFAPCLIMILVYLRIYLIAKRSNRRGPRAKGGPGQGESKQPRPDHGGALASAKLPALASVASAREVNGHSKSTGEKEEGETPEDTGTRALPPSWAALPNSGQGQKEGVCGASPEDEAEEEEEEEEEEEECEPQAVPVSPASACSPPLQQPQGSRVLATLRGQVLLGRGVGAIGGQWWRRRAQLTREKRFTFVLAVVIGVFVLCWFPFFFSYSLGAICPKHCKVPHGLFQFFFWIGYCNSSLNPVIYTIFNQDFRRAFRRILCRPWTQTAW
Alpha-2C adrenergic receptor, sequence (P18825 whole entry): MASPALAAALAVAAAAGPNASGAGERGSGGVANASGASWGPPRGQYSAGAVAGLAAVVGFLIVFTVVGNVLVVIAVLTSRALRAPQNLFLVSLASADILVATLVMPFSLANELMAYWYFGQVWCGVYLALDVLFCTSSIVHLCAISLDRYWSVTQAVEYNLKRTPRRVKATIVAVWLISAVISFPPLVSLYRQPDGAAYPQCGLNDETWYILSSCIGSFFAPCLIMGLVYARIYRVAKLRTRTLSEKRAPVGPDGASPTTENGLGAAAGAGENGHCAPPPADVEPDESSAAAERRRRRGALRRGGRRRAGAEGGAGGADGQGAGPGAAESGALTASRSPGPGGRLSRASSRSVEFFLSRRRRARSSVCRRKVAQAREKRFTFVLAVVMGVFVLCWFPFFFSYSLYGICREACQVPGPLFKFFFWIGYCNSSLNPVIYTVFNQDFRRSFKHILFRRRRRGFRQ
Sodium- and chloride-dependent GABA transporter 1 (Homo sapiens), sequence (P30531 whole entry, looked up): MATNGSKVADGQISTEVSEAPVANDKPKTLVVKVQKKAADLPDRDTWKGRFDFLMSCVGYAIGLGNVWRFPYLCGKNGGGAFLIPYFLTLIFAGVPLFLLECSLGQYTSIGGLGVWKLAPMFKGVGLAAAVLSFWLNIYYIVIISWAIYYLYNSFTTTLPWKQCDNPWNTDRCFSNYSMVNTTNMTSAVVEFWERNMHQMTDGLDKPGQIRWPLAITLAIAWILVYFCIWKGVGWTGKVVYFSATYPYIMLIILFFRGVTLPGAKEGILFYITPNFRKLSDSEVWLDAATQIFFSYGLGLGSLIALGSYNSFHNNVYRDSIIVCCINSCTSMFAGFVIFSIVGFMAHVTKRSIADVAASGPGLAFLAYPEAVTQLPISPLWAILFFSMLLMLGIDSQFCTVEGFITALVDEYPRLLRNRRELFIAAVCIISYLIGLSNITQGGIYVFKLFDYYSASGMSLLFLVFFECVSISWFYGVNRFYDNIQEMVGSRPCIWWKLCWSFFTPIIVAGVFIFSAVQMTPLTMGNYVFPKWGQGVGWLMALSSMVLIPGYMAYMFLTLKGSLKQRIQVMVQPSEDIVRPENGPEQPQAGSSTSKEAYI
Alpha-1D adrenergic receptor (Homo sapiens), sequence (P25100 whole entry): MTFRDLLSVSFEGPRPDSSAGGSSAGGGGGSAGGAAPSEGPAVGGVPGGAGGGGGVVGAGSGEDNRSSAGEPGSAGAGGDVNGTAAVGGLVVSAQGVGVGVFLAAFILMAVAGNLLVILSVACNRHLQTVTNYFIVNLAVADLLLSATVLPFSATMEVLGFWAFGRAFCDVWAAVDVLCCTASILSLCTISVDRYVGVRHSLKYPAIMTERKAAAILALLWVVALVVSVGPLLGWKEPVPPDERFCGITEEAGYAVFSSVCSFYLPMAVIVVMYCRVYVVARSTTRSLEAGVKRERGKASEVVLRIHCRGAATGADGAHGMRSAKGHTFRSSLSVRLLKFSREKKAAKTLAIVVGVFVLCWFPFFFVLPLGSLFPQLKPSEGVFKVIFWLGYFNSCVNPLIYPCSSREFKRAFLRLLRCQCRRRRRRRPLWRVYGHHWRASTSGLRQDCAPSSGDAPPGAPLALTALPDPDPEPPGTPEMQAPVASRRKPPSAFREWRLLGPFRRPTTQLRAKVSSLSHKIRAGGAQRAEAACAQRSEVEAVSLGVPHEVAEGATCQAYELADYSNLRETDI
5-hydroxytryptamine receptor 2B, sequence (P41595 whole entry): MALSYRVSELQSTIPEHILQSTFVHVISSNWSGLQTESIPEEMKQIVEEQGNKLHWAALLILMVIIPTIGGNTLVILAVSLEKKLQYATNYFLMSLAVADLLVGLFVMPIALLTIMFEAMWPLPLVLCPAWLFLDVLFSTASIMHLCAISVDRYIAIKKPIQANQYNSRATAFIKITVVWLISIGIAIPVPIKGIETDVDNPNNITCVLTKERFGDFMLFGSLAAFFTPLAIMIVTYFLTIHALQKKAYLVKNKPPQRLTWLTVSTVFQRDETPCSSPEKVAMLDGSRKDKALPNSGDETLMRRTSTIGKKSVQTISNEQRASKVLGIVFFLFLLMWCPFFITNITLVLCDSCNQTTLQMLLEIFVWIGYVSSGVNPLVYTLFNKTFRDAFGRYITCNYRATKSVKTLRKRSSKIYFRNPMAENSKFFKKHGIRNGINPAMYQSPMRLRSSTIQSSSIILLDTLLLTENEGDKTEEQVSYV
D(3) dopamine receptor (Homo sapiens), sequence (P35462 whole entry): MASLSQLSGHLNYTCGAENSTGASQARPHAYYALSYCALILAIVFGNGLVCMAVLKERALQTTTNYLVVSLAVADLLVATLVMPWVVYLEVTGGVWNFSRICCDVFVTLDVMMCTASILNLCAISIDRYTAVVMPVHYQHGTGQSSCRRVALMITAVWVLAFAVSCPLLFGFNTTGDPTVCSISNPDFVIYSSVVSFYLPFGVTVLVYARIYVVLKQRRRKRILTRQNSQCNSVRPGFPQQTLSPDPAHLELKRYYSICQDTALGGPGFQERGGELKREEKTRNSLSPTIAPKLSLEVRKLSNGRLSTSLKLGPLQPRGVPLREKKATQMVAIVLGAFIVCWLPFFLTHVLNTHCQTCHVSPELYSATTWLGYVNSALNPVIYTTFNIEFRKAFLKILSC
Histamine H3 receptor (Homo sapiens), sequence (Q9Y5N1 whole entry): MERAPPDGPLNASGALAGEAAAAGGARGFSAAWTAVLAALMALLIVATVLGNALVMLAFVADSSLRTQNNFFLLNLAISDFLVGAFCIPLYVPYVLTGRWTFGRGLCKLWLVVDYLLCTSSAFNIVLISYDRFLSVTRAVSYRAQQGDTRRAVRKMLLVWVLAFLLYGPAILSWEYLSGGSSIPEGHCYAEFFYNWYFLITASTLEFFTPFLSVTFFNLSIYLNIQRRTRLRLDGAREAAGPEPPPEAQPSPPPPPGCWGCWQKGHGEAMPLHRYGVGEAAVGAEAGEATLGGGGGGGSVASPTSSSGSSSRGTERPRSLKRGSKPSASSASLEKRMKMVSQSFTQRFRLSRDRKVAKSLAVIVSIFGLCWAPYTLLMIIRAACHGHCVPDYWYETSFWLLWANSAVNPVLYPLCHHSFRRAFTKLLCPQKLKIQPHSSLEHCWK

The IC50 is the concentration at which inhibition is half-maximal. Take `O=C(Nc1cccnn1)N1CC(C/C=C/c2cncc(Oc3ccc(C(F)(F)F)cn3)n2)C1`: the IC50 in [1] is recorded as > 100 µM (not active).

As usually defined, the inhibition is the drop in the measured response relative to a control, in per cent. What is called Ki is the dissociation constant of the complex between target and ligand, obtained from inhibition or displacement. As for `O=C(Nc1cccnn1)N1CCC(=Cc2cccc(Oc3ccc(C(F)(F)F)cn3)c2)CC1`, the inhibition in test [2] was -8%; in test [3] (Compound concentration 10.0 uM), 78%; in [4] it was 17.3%; in test [5], 18%; in test [6] it was 2%; in [7], -2%. In addition, the inhibition was 35% in test [8]; 3.84% in test [9]; 4% in [10]; 3% in test [11]; -2% in test [12]; -6% in test [15]. The inhibition in [16] is 36%; in [18], 0.69%; in [19] it was -5%; in test [20] (Compound concentration 10.0 uM) it was 57%; in [21] it was -8%; in test [22], 30.5%. Further, the inhibition is -10% in [23]; -3% in test [24]; 8% in test [25]; 10% in test [26]; -1% in [27]; 0% in [28]. Moreover, the Ki came to 3000 nM in [3], 1660 nM in test [13], 596 nM in test [17] and 1600 nM in test [20]. For the same compound, the IC50 in [14] was 7.4 nM (active).
